Literature values, collected in patent US8703823B2, “Methods for treatment of migraine and symptoms thereof” (priority 2004, dated 2014).

Tests used:
[1] = individuals treated with trimethobenzamide for uncontrolled vomiting
[2] = in vivo

Row | Structure (SMILES) | Occurrence of adverse diskinesia side effects [1] | Migraine prevention / antimigraine effect [2]
1 | COc1cc(C(=O)NCc2ccc(OCCN(C)C)cc2)cc(OC)c1OC.Cl [trimethobenzamide, N-[p-[2-(dimethylamino)ethoxy]benzyl]-3,4,5-trimethoxybenzamide monohydrochloride] | < 2% | 
2 | COc1cc(N)c(Cl)cc1C(=O)NC1CCN(CCCOc2ccc(F)cc2)CC1OC (stereo not drawn) [cisapride] |  | ineffective
3 | CCN(CC)CCNC(=O)c1cc(Cl)c(N)cc1OC [Metoclopramide, metoclopramide] |  | exerted an antimigraine effect
